Experimental data: patent US20120082658A1, “Methods for the Treatment of Allergic Diseases” (VentiRx Pharmaceuticals, Inc., priority 2010, published 2012)

Legend:
Assay type in all cases: cell-based
[1] = biological target: T1, TLR3 (Homo sapiens, UniProt O15455); test: HEK293 cells transfected with human TLR3, NF-κB driven reporter; settings: concentration up to 25 uM
T1 construct: expressed in transfected cells; host or cells: HEK293
T1 sequence (O15455 24-904): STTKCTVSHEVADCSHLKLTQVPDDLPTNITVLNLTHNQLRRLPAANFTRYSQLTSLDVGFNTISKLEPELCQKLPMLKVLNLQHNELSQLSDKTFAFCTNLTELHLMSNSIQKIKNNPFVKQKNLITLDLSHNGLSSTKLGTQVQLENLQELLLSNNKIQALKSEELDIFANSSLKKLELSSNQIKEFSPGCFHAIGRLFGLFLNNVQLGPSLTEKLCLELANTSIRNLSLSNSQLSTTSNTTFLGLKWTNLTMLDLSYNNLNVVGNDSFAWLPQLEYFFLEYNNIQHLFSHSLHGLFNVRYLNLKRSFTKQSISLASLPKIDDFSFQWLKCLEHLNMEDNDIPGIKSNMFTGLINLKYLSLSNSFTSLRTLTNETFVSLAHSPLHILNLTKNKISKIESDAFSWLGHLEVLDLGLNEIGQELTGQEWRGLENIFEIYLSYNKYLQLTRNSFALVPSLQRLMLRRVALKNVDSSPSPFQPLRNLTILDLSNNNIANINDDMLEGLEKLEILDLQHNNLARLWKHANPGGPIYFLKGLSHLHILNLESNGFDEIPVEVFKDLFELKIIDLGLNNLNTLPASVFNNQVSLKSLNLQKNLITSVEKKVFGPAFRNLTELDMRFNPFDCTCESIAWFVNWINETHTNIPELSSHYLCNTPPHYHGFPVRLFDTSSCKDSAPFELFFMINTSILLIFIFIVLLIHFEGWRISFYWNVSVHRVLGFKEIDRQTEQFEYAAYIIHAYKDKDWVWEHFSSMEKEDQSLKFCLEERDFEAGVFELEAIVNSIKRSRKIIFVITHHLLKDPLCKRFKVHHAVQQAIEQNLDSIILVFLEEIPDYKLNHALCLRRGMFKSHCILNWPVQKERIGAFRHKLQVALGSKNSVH
Protocol: (§1) FIG. 8 is two graphs depicting the potency and selectivity of VTX-378 for TLR8. The half-maximal effective concentration (EC50) for VTX-378 activation of TLR8 and TLR7 was assessed in peripheral blood mononuclear cells (PBMCs) by the amount of secreted TNFα (A) and by the activity of NF-κB (B) from 15 healthy donors and also in HEK293 cells transfected with various human TLRs.
(§2) Preclinical studies were performed with VTX-378, the active pharmaceutical ingredient in VTX-1463. The specificity of VTX-378 for human TLR8 relative to other TLRs was assessed in transfected Human Embryonic Kidney 293 (HEK293) cells engineered to express individual TLRs (2-9) via transfection, and assessed using an NF-κB driven reporter system. […] The pharmacologic effects of VTX-378 were characterized in vitro using isolated human peripheral blood mononuclear cells (PBMCs).

[2] = biological target: T2, TLR4 (Homo sapiens, UniProt O00206+Q9Y6Y9); test: HEK293 cells transfected with human TLR4, NF-κB driven reporter
T2 construct: expressed in transfected cells; host or cells: HEK293
T2 sequence (O00206 24-839): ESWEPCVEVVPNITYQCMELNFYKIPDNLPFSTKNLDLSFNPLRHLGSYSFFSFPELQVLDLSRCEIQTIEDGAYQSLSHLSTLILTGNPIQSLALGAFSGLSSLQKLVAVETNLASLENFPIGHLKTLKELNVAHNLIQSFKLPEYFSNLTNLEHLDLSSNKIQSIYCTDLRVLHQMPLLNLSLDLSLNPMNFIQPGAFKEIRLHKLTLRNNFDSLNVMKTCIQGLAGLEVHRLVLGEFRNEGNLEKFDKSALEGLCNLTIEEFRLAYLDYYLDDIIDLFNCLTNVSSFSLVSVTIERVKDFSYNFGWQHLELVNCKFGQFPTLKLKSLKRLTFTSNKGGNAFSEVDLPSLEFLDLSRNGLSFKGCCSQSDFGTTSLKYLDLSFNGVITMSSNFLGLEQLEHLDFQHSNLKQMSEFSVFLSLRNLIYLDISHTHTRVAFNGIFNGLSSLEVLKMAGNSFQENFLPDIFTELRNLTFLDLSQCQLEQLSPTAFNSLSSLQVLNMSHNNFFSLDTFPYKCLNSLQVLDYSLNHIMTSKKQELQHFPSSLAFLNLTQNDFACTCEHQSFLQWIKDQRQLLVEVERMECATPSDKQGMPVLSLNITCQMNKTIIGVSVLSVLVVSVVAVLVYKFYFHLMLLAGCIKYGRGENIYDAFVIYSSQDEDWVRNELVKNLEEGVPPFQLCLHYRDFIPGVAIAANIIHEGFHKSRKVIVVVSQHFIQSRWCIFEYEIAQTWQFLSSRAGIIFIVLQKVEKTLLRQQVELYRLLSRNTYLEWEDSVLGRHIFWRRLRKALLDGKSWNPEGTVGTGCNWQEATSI
T2 sequence (Q9Y6Y9 17-160 limits assumed): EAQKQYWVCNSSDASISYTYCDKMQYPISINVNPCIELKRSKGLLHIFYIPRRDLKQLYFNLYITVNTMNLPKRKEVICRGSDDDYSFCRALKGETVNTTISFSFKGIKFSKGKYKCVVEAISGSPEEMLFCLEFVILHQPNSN
Protocol: as §1, §2

[3] = biological target: T3, TLR6 (Homo sapiens, UniProt Q9Y2C9); test: HEK293 cells transfected with human TLR6, NF-κB driven reporter; settings: concentration up to 25 uM
T3 construct: expressed in transfected cells; host or cells: HEK293
T3 sequence (Q9Y2C9 32-796): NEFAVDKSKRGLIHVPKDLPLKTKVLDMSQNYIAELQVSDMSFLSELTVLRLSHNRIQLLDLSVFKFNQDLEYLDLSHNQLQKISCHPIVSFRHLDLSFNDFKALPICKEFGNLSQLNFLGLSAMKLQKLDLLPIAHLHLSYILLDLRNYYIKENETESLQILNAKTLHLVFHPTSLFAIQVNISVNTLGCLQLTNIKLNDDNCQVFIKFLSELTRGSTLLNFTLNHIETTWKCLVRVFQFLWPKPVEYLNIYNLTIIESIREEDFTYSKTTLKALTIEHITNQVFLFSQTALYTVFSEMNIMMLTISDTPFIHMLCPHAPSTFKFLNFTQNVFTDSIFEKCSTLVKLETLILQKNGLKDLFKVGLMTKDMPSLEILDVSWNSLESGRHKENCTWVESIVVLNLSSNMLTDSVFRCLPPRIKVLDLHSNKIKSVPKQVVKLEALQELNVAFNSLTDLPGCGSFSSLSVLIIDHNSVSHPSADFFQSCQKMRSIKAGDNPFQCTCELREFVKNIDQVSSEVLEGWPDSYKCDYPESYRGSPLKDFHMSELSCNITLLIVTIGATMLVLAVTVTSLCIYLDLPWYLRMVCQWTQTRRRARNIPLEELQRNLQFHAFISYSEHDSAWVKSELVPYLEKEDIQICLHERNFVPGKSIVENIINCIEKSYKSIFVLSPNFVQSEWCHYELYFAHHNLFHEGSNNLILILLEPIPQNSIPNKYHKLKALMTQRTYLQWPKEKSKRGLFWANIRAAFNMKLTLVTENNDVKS
Protocol: as §1, §2

Compound: CCCN(CCC)C(=O)C1=Cc2ccc(-c3ccc(C(=O)N4CCCC4)cc3)cc2N=C(N)C1 [VTX-378]
- activity on TLR3 [1]: no detectable activity
- activity on TLR4 [2]: minimal to no activity
- activity on TLR6 [3]: no detectable activity
